Experiment: Association of PHMB with PCC after drying (drum dryer)
Type: physicochemical
Conditions: only water is evaporated
Source text: Although PHMB is water soluble, with the drying process used for PCC (a drum dryer), only water is evaporated; the PHMB remains associated with the PCC.

For poly[(hexamethylene)biguanide] [PHMB], the “Association of PHMB with the PCC after the drying process” value was “remains associated with the PCC after the drying process”.

Source: patent US10206860B2, “Biguanide preservation of precipitated calcium carbonate” (Colgate-Palmolive Company, priority 2009, dated 2019)
